We go through 2 substances from publication PMC11357992, “Non-invasive mapping of systemic neutrophil dynamics upon cardiovascular injury” (Nature Cardiovascular Research, 2023).

“And” between values parts separate entries of the source, which are not always exact repeats. Equal values may be shown once. Where no end group is shown, it is not given here. Side-chain parts run from the residue outwards. rhodamine‑labelled PEGylated perfluoro‑15‑crown‑5 ether nanoemulsion = not defined here; carboxyfluorescein = N-terminal fluorescence label (CF)

Assay [1] relates to neutrophils from explanted failing human hearts. The experiment in a line: hNPPFC uptake by neutrophils from explanted human hearts, flow cytometry. It counts as cell-based. Conditions: 10 µl hNPPFCs, 30 min, 37 °C. As to the method: During orthotopic heart-transplant surgery in patients suffering from terminal heart failure, a tissue specimen of about ~5 g was excised from the apex of the failing heart immediately after explantation. Tissues were immediately transferred to iced BIOPS buffer as described previously. For subsequent isolation of immune cells, heart samples were cut into small pieces and digested with the Multi Tissue Dissociation Kit 2 (Miltenyi; ‘adult rat heart’ protocol) by incubating for 40 min at 37 °C with the specified enzyme mix using the 37C_Multi_G program by gentleMACS. Afterward, 7.5 ml DMEM with 20% FCS was added to stop enzymatic digestion. The sample was applied to a 70-µm cell filter and washed with 3 ml DMEM, followed by centrifugation for 5 min at 300g. The supernatant was discarded, and cells were resuspended in 1 ml DMEM and incubated with 10 µl ^hNPPFCs for 30 min at 37 °C on a vertical shaker. Afterward, cells were washed twice with MACS buffer and stained for CD45, CD11b and CD66b. DAPI staining was performed for exclusion of dead cells. The uptake of ^hNPPFCs into neutrophils (CD45^+CD11b^+CD66b^+) was determined by flow cytometry.
(In general: Flow cytometry measures light scatter and fluorescence of single cells or particles in a stream.)

Another assay deals with bone marrow neutrophils. The experiment in a line: In situ labeling of bone marrow neutrophils and tracking after MI, 1H/19F MRI of bone marrow. It counts as in vivo, mouse. As to the method: For labeling of neutrophils before MI, mice were anesthetized (1.5% isoflurane) and 1 mmol per kg BW PFCs were injected intravenously via the tail vein on 3 consecutive days. Induction of MI was essentially carried out as previously described. For inhibiting the egress of neutrophils from the bone marrow in a subset of experiments, a cocktail of neutralizing antibodies was injected i.p. 1 h before and 4 h after MI (CXCL1, CXCL2, G-CSF, GM-CSF, 50 µg each, Thermo Fisher). To generate neutropenic mice, 48 and 24 h before MI, 500 µg of the Ly6G-depletion antibody (BioXcell, clone 1A8) was injected i.p. in independent experiments.
All experiments were performed with a vertical 9.4 T Bruker AVANCE^III Wide Bore NMR spectrometer (Bruker) driven by ParaVision 5.1 and operating at frequencies of 400.21 MHz for ^1H measurements and 376.54 MHz for ^19F measurements using a Bruker microimaging unit, Micro2.5, with actively shielded gradient sets (1.5 T m^−1). Data were acquired using a 25-mm quadrature ^19F resonator with one channel tunable to both ^1H and ^19F. Mice were anesthetized with 1.5% isoflurane and kept at 37 °C. After acquisition of morphological ^1H images, the resonator was tuned to ^19F, and anatomically matching ^19F images were recorded essentially as described previously. […]
Slice packages were placed in sagittal orientation to cover the complete bone marrow in the tibia and femur in both legs using the following scan details: ^1H RARE, TR = 2,000 ms, FOV = 4.00 × 2.56 cm^2, matrix = 256 × 256, ST = 1 mm, tAcq = 1 min; ^19F RARE, TR = 2,500 ms, FOV = 4.00 × 2.56 cm^2, matrix = 64 × 64, ST = 3 mm, tAcq = 10 min.
Extended Data Fig. 4 Experimental timeline and whole body ^1H/^19F MRI of a ^mNPPFC-treated mouse. a, To label neutrophils within the bone marrow, ^mNPPFCs (or ^ConPFCs as control) were intravenously injected on three consecutive days (day −3, −2, −1) followed by ^1H/^19F MRI of the bone marrow on day 0. Subsequently, MI was induced and bone marrow and the infarcted heart were analyzed by combined ^1H/^19F MRI 24 h later. b, In separate experiments, neutralizing antibodies against CXCL1, CXCL2, G-CSF and GM-CSF were injected intraperitoneally (i. p.; 50 µg) 1 h before and 4 h post induction of MI to inhibit the MI-stimulated egress of neutrophils from the bone marrow and their infiltration into the heart. c, To determine the whole body biodistribution of ^mNPPFCs, ^mNPPFCs were intravenously injected daily over three consecutive days. Afterwards, whole body ^1H/^19F MRI measurements were performed to visualize the labelled neutrophils in the different bone marrow compartments. The bright ^19F spot in the middle represents the liver – an organ known to be as major site of (PFC) nanoparticle deposition.
Extended Data Fig. 5 ^mNPPFC incorporation into the bone marrow and cardiac function after MI. a, Impact of neutrophil depletion on ^mNPPFC incorporation into the bone marrow: For in vivo labeling of bone marrow neutrophils, ^mNPPFCs were injected intravenously and 24 h later the ^19F signal within the femur and tibia was determined (gray). […] The marrow mainly belongs to the diaphysis whereas the growth of the bones takes place at the inner and outer epiphysis. […]

With “hNPPFCs: PEGylated rhodamine-labeled perfluorocarbon nanoemulsion coupled with human neutrophil-specific peptide hNP (carboxyfluorescein-DLVTSKLQVGGGC; also: C-terminal Cys coupled via maleimide-PEG2000-DSPE to rhodamine-labelled perfluorocarbon nanoemulsion)”, the “labeling of neutrophils freshly isolated from explanted failing human hearts” value in assay [1] was “could be labeled”.

“mNPPFCs: PEGylated rhodamine-labeled perfluoro-15-crown-5 ether nanoemulsion (maleimide PFCs) coupled with murine neutrophil-specific peptide mNP (carboxyfluorescein-DFYKPMPNLRITGGGC([maleimide‑PEG2000‑DSPE-rhodamine‑labelled PEGylated perfluoro‑15‑crown‑5 ether nanoemulsion]); reading uncertain; also: printed as DFYKPMPNLRIT-GGG-C)”: the “19F signal of bone marrow, Post” value in the assay with bone marrow neutrophils (1H/19F MRI, after MI, panel B raw data, single animals) was 384270 and 284234 and 342343 and 246818 and 294364 and 237217 and 352300. Further, in the assay on bone marrow neutrophils (1H/19F MRI, before MI, panel B raw data, single animals), the “19F signal of bone marrow, Pre” value is 555612 and 765758 and 385254 and 440946 and 378880 and 354237 and 356979 and 487088 and 602276. Further, the “19F signal within the femur and tibia (bone marrow)” value in the assay with bone marrow neutrophils (Ctrl (no depletion), 24 h after i.v. mNPPFC injection, individual experiments) was 1.88E+06 and 1.21E+06 and 1.06E+06 and 1.73E+06. In addition, the “change of bone marrow 19F signal 24 h after MI” value in the assay with bone marrow neutrophils (femur and tibia, daily i.v. injections over 3 d before MI) was “substantial reduction”. Moreover, in the assay with bone marrow neutrophils (mNPPFC-labeled mice, Nabs = plus antibodies against CXCL1, CXCL2, G-CSF, GM-CSF i.p. 1 h before and 4 h post MI, individual experiments), the “BM 19F signal post MI normalized to the 19F signals detected before induction of MI” value is 69.1617 and 64.46 and 69.676 and 82.4597 and 48.7011 and 58.4948 and 73.1944 and 76.1165.
